No end group written: not given here.
Legend:
CCKA receptor [1] = assay: CCKA receptor luciferase reporter assay, agonism; type: cell-based; settings: 18 h, CRE-, SRE-, NFAT-
Protocol: (§1) HEK293T cells seeded in 24-well plates were co-transfected by various luciferase reporters (30 ng), the pSV-β-Gal plasmid (3 ng), and the CCKA or CCKB receptor (30 ng). After 1 day, cells were treated in serum-free media for another 18 h with increasing doses of the CCK-8 or CCKsv peptide. For the estimation of antagonistic activities, cells were pre-incubated (30 min.) with the CCKsv peptide before treatment with CCK8 for 18 h. Luciferase activities were determined using luciferase assay kits (Promega) and normalized using β-galactosidase activities. All experiments were performed at least three times in triplicates. Data were analyzed using Graphpad Prism 5.0.

SK-N-MC cells = assay: Ewing tumor cell growth, SK-N-MC, crystal violet staining; type: cell-based, human; settings: CCK-8 0.1 uM, 6 days; for suppression of CCK-stimulated growth, SK-N-MC: serum-free, CCKsv 30 min pre-treatment, at least 3 independent experiments
Protocol: (§2) SK-N-MC and SK-PN-DW cells (1×10^5) were plated in 12-well plates and allowed to attach for 24–36 h. Cells were then cultured in serum-free media with 0.1 uM of the CCK-8 peptide with or without the CCKsv peptide. Fresh media containing peptides were replaced every two days. […] Cell growth was determined by crystal violet staining.

SK-PN-DW cells = assay: Ewing tumor cell growth, SK-PN-DW, crystal violet staining; type: cell-based; settings: CCK-8 0.1 uM, 6 days; for suppression of CCK-stimulated growth, SK-PN-DW: serum-free, CCKsv 30 min pre-treatment, at least 3 independent experiments
Protocol: as §2

CCKB receptor [2] = assay: CCKB receptor luciferase reporter assay, agonism; type: cell-based; settings: 18 h
Protocol: as §1

[3] = tested on: release of pancreatic enzymes and the contraction of the gallbladder; settings: ref [10]–[12]; cited from earlier work
From the text: Alternative splicing allows the generation of various gene products with different functions from a single gene and is a major mechanism of generating protein diversity in eukaryotes [1]–[5]. At least half, or more, of mammalian genes can be alternatively spliced, [2]. Thus, alternative splicing emerges as a major mechanism of generating protein diversity and splicing of coding regions in peptide hormone genes often results in additional protein domains. Calcitonin and calcitonin-related polypeptide represent the classical example of novel hormone evolution from the same gene ...

[4] = tested on: various cancer cell lines; settings: ref [23]–[27]; cited from earlier work
Protocol: Because treatment with a CCK antagonist inhibits proliferation of Ewing tumor cells, CCK antagonist could represent a new therapeutic approach in the management of Ewing's tumor patients. To further confirm the potential antagonist function of CCKsv, we checked if CCKsv could inhibit Ewing tumor cell growth stimulated by CCK. Two Ewing tumor cell lines (SK-N-MC and SK-PN-DW) were cultured with the CCK-8 peptide (0.1 uM) in the presence or absenc ...

CCKB receptor [5] = assay: CCKB receptor luciferase reporter assay, antagonism of CCK-8; type: cell-based
Protocol: as §1

CCKA receptor [6] = assay: CCKA receptor luciferase reporter assay, antagonism of CCK-8; type: cell-based; settings: CCKsv 0.1 uM or 1 uM, 30 min pre-incubation
Protocol: as §1

LGR7 = assay: relaxin-stimulated CRE-luciferase activity in LGR7-expressing cells (specificity control); type: cell-based; settings: CCKsv 0.1 uM or 1 uM, co-treatment with relaxin, Fig. S6

## CCK-8: CCK-8 peptide purchased from Phoenix Pharmaceuticals Inc. [reference compound]
CCKA receptor [1]; HEK293T cells co-transfected with reporter, pSV-β-Gal and CCKA, serum-free, SRF-RE reporters screened, normalized to β-galactosidase, at least three times in triplicates
  stimulation of luciferase reporters by CCK-8 via CCKA: stimulated CRE- and SRF-RE reporters via CCKA
SK-N-MC cells; serum-free media, replaced every two days, Fig. 4A
  Ewing tumor cell growth with CCK-8, SK-N-MC: growth stimulated by CCK-8 peptide
SK-PN-DW cells; serum-free media, replaced every two days, Fig. 4B
  Ewing tumor cell growth with CCK-8, SK-PN-DW: growth stimulated by CCK-8 peptide
CCKB receptor [2]; HEK293T cells co-transfected with reporter, pSV-β-Gal and CCKB, serum-free, CRE-, SRE-, NFAT-, SRF-RE reporters screened, normalized to β-galactosidase, at least three times in triplicates
  stimulation of luciferase reporters by CCK-8 via CCKB: stimulation of CRE-, SRE- and SRF-RE reporters
CCKB receptor [2]; HEK293T, CRE-luciferase, CCKB, compared with other reporter/receptor combinations (Fig. 3C)
  responsiveness to CCK-8 of cells with CRE reporter and CCKB receptor: most responsive to CCK-8 peptide stimulation

## Cholecystokinin [CCK]
[3]
  release of pancreatic enzymes and gallbladder contraction: induce the release of pancreatic enzymes and the contraction of the gallbladder
[4]
  cell proliferation in cancer cell lines: induces cell proliferation

## GKNAASPSLTSALVPRLPMLTLFSSASLMGMTSL-amidated (GKNAASPSLTSALVPRLPMLTLFSSASLMGMTSL-NH2) [CCKsv, splicing variant of human CCK; predicted mature peptide chemically synthesized, C-terminally amidated]
CCKB receptor [5]; Fig. 3C, HEK293T + CCKB, CRE reporter, 1 uM CCKsv (30 min pre-incubation), CCK-8 30 nM, 18 h
  suppression of CCK-8-stimulated CRE luciferase activity: ~60%
CCKB receptor [5]; Fig. 3C, HEK293T, CCKsv 0.1 uM or 1 uM, 30 min pre-incubation, increasing doses of CCK-8, 18 h
  inhibition of CCK-8-stimulated CRE luciferase activity, CCKB: inhibited
CCKB receptor [5]; Fig. 3D, HEK293T + CCKB, SRF reporter, 1 uM CCKsv (30 min pre-incubation), CCK-8 30 nM, 18 h
  suppression of CCK-8-stimulated SRF luciferase activity: ~60%
CCKB receptor [5]; Fig. 3D, HEK293T, CCKsv 0.1 uM or 1 uM, 30 min pre-incubation, increasing doses of CCK-8, 18 h
  inhibition of CCK-8-stimulated SRF luciferase activity, CCKB: inhibited
CCKB receptor [5]; Fig. 3E, HEK293T, CCKsv 0.1 uM or 1 uM, 30 min pre-incubation, increasing doses of CCK-8, 18 h
  inhibition of CCK-8-stimulated SRE luciferase activity, CCKB: inhibited
CCKB receptor [5]; HEK293T + CCKB, CCKsv 0.1 uM or 1 uM, 30 min pre-incubation, then CCK-8 (various doses) 18 h, luciferase
  suppression of CCK8 actions by CCKsv pretreatment, CCKB: dose-dependent suppression of CCK8 actions
CCKA receptor [6]; Fig. 3A, HEK293T, increasing doses of CCK-8, 18 h
  inhibition of CCK-8-stimulated CRE luciferase activity, CCKA: inhibited
CCKA receptor [6]; Fig. 3B, HEK293T, increasing doses of CCK-8, 18 h
  inhibition of CCK-8-stimulated SRF luciferase activity, CCKA: inhibited
CCKA receptor [6]; HEK293T + CCKA, then CCK-8 (various doses) 18 h, luciferase
  suppression of CCK8 actions by CCKsv pretreatment, CCKA: dose-dependent suppression of CCK8 actions
CCKA receptor [1]; HEK293T + CCKA, SRF-RE-luciferase (Gs, Gi, Gq, G12), Fig. S5
  stimulation of G protein pathways by CCKsv via CCKA (agonism): not capable of stimulating different G proteins (Gs, Gi, Gq, and G12)
SK-N-MC cells; 0.1 uM CCKsv, Fig. 4A
  suppression of CCK-stimulated growth, SK-N-MC: 22%
SK-N-MC cells; 1 uM CCKsv, Fig. 4A
  suppression of CCK-stimulated growth, SK-N-MC: 38%
SK-N-MC cells; CCKsv 0.1 uM or 1 uM
  effect of CCKsv on CCK-stimulated growth, SK-N-MC: dose-dependently reduced CCK-stimulated growth
LGR7
  effect on luciferase activity stimulated by relaxin: did not alter relaxin signaling
SK-PN-DW cells; 0.1 uM CCKsv, Fig. 4B
  suppression of CCK-stimulated growth, SK-PN-DW: 18%
SK-PN-DW cells; 1 uM CCKsv, Fig. 4B
  suppression of CCK-stimulated growth, SK-PN-DW: 31%
SK-PN-DW cells; CCKsv 0.1 uM or 1 uM
  effect of CCKsv on CCK-stimulated growth, SK-PN-DW: dose-dependently reduced CCK-stimulated growth
CCKB receptor [2]; HEK293T + CCKB, CRE-, SRE-, NFAT-, SRF-RE-luciferase (Gs, Gi, Gq, G12), Fig. S5
  stimulation of G protein pathways by CCKsv via CCKB (agonism): not capable of stimulating different G proteins (Gs, Gi, Gq, and G12)
